Source: patent US20050065118A1, “Organosulfur inhibitors of tyrosine phosphatases” (priority 2001, published 2005)
pIC50: −log10 of the molar value.

Target: T1, PTP-1B (Homo sapiens, UniProt P18031)
T1 sequence (P18031 1-435): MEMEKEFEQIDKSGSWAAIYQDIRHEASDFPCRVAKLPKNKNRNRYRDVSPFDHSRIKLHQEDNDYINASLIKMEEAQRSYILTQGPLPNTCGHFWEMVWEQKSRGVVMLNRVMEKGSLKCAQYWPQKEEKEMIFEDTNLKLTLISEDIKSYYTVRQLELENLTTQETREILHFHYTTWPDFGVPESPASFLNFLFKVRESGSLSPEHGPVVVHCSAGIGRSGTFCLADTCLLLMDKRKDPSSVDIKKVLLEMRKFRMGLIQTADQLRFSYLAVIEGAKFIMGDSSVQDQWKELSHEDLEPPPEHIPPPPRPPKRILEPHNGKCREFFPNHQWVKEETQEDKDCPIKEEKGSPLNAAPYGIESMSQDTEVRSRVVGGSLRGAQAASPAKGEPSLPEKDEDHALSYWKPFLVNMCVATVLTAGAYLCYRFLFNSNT
Test: PTP-1B inhibition, Malachite Green assay with pIRP substrate
Format: biochemical
Description: The compounds of the present invention are evaluated for biological activity as inhibitors of PTP-1B using, for example, a Malachite Green assay with pIRP as a substrate. The pIRP substrate includes a phosphotyrosine residue, and PTP-1B cleaves the phosphate group from the tyrosine, yielding the peptide and phosphate. The rate of the enzymatic reaction is determined by measuring the phosphate released during the reaction.
The reactants for the assay include 20 mM Tris-HCl, pH 7.4, 2 mM EDTA (ethylaminediamine tetraacetic acid) and 2 mM DTT (dithiothreitol) as the assay buffer, and 1 mM pIRP in assay buffer (1 mg in 0.59 mL buffer) as the substrate stock. The Malachite Green solution is prepared by adding 30 μL of 1% Tween 20 to 1 mL of Malachite Green Solution A. The stock of each compound to be tested is made up as 10 mM in DMSO (dimethylsulfoxide).
The compound to be tested is prepared as 1:5, 1:15.8, 1:50 and 1:158 dilutions from stock in a total volume of […]. The reaction mixtures are prepared in a 96-well microtiter plate as 27.5 μL assay buffer, […] of the diluted compound (to a final concentration of 100, 32, 10 and 3.2 μM), 10 μL of the pIRP substrate solution (to a final concentration of 200 μM) and 10 μL PTPase in assay buffer. The reactants are mixed well, the plate placed in a water bath at 30° C. and incubated for 3 minutes. The reaction is then terminated by adding 100 μL of Malachite Green solution per well, color is allowed to develop for 15 minutes, and the A650 is measured by conventional means.
Unless otherwise indicated, this assay was used to determine activity for the selected compounds whose activity is recorded in the Table.

In order of rising pIC50:
1. O=C(O)c1cccc(Nc2nnc(-c3cc(OCc4ccccc4)cc(OCc4ccccc4)c3)s2)c1 [Compound 188, 3-[5-(3,5-Bis-benzyloxy-phenyl)-[1,3,4]thiadiazol-2-ylamino]-benzoic acid]  5.00
2. O=C(O)c1cccc(Nc2nnc(-c3cc(Oc4cccc(C(F)(F)F)c4)cc(Oc4cccc(C(F)(F)F)c4)c3)s2)c1 [Compound 198, 3-{5-[3,5-Bis-(3-trifluoromethyl-phenoxy)-phenyl]-[1,3,4]thiadiazol-2-ylamino}-benzoic acid]  5.40
3. O=C(O)c1ccc(CN(c2ccc(Cl)c(Cl)c2)c2nc(-c3ccc(-c4ccccc4)cc3)cs2)cc1 [Example 168, 4-({(3,4-dichlorophenyl)[4-(4-phenylphenyl)(1,3-thiazol-2-yl)]amino}methyl)benzoic acid.]  6.00

Tested on: not given
Test: not given

First: COc1ccc(CSc2cccc(Nc3nnc(-c4cccc([N+](=O)[O-])c4)s3)c2)cc1 [Example 41, {3-[(4-Methoxyphenyl)methylthio]phenyl}[5-(3-nitrophenyl)(1,3,4-thiadiazol-2-yl)]amine]
Second: O=[N+]([O-])c1cccc(-c2nnc(Nc3cccc(Br)c3)s2)c1 [Example 1, N2-(3-bromophenyl)-5-(3-nitrophenyl)-1,3,4-thiadiazol-2-amine]
The melting point of the first is lower: 208 to 209 °C for the first, 273 to 275 °C for the second.

First: Clc1cc(Nc2nnc(-c3ccc4nonc4c3)s2)ccc1Br [Example 122, (5-benzo[3,4-c]1,2,5-oxadiazol-5-yl(1,3,4-thiadiazol-2-yl))(4-bromo-3-chlorophenyl)amine]
Second: Clc1ccc(Nc2nnc(-c3ccc4nonc4c3)s2)cc1Cl [Example 162, (5-benzo[c]1,2,5-oxadiazol-5-yl(1,3,4-thiadiazol-2-yl))(3,4-dichlorophenyl)amine]
The melting point of the first is higher: 326 to 327 °C for the first, 315 to 317 °C for the second.

First: O=C(O)CCSC(c1cccc(-c2nnc(Nc3ccc(Cl)c(Cl)c3)s2)c1)c1cccc(C(F)(F)F)c1 (centres unmarked)
Second: FC(F)(F)c1cccc(Oc2cccc(-c3nnc(Nc4ccc(Cl)c(Cl)c4)s3)c2)c1 [Example 154, (3,4-dichlorophenyl)(5-{3-[3-(trifluoromethyl)phenoxy]phenyl}(1,3,4-thiadiazol-2-yl))amine]
The melting point of the first is lower: 140 to 141 °C for the first, 212 to 213 °C for the second.

Compared with `O=C(O)CCc1cccc(Oc2cccc(-c3nnc(Nc4ccc(Cl)c(Cl)c4)s3)c2)c1` [Example 9, 3-[3-(3-{5-[(3,4-Dichlorophenyl)amino]-1,3,4-thiadiazol-2-yl}phenoxy)phenyl]propanoic acid], `O=C(O)Cc1cccc(Oc2cccc(-c3nnc(Nc4ccc(Cl)c(Cl)c4)s3)c2)c1` [Example 127, 2-[3-(3-{5-[(3,4-dichlorophenyl)amino]-1,3,4-thiadiazol-2-yl}phenoxy)phenyl]acetic acid] is lower in melting point: 194 to 196 °C for the first, 183 to 184 °C for the second.

First: COc1cccc(-c2nnc(Nc3ccc(Br)c(Cl)c3)s2)c1 [Example 69, (4-bromo-3-chlorophenyl)[5-(3-methoxyphenyl)(1,3,4-thiadiazol-2-yl)]amine]
Second: COc1cccc(-c2nnc(Nc3ccc(F)c(Cl)c3)s2)c1 [Example 68, (3-chloro-4-fluorophenyl)[5-(3-methoxyphenyl)(1,3,4-thiadiazol-2-yl)]amine]
The melting point of the first is higher: 215 to 217 °C for the first, 185 to 187 °C for the second.

Compared with `CCOc1cccc(-c2nnc(Nc3cccc(Br)c3)s2)c1` [Example 74, (3-bromophenyl)[5-(3-ethoxyphenyl)(1,3,4-thiadiazol-2-yl)]amine], `CCOc1cccc(-c2nnc(Nc3ccc(Br)c(C)c3)s2)c1` [Example 71, (4-bromo-3-methylphenyl)[5(3-ethoxyphenyl)(1,3,4-thiadiazol-2-yl)]amine] is higher in melting point: 195 to 197 °C for the first, 201 to 202 °C for the second.

First: Clc1ccc(Nc2nnc(-c3cc(OCc4ccccc4)cc(OCc4ccccc4)c3)s2)cc1Cl [Example 160, (3,4-dichlorophenyl){5-[3,5-bis(phenylmethoxy)phenyl](1,3,4-thiadiazol-2-yl)}amine]
Second: FC(F)(F)Oc1cccc(COc2cccc(-c3nnc(Nc4ccc(Cl)c(Cl)c4)s3)c2)c1 [Example 129, (3,4-dichlorophenyl)[5-(3-{[3-(trifluoromethoxy)phenyl]methoxy}phenyl)(1,3,4-thiadiazol-2-yl)]amine]
The melting point of the first is higher: 212 to 214 °C for the first, 166 to 167 °C for the second.

First: Clc1ccc(Nc2nnc(-c3cccc(Oc4ccc(Cl)c(Cl)c4)c3)s2)cc1Cl [Example 153, (3,4-dichlorophenyl)(5-[3-(3,4-dichlorophenoxy)phenyl](1,3,4-thiadiazol-2-yl)}amine]
Second: Clc1cc(Cl)cc(Oc2cccc(-c3nnc(Nc4ccc(Cl)c(Cl)c4)s3)c2)c1 [Example 152, (3,4-dichlorophenyl){5-[3-(3,5-dichlorophenoxy)phenyl](1,3,4-thiadiazol-2-yl)}amine]
The melting point of the first is lower: 189 to 190 °C for the first, 242 to 243 °C for the second.

First: O=C(O)c1ccc(CN(c2ccc(Cl)c(Cl)c2)c2nnc(-c3cccc(Oc4cccc(C(F)(F)F)c4)c3)s2)cc1 [Example 157, 4-{[(3,4-dichlorophenyl)(5-{3-[3-(trifluoromethyl)phenoxy]phenyl}-(1,3,4-thiadiazol-2-yl))amino]methyl}benzoic acid]
Second: CC(=NNc1ccc(C(=O)O)cc1)c1cccc(Nc2nnc(-c3cccc(Oc4cccc(C(F)(F)F)c4)c3)s2)c1 [Example 165, 4-{N′-[1-(3-{5-[3-(3-Trifluoromethyl-phenoxy)-phenyl]-[1,3,4]thiadiazol-2-ylamino}-phenyl)-ethylidene]-hydrazino}-benzoic acid]
The melting point of the first is lower: 114 to 116 °C for the first, 277.5 to 279 °C for the second.

First: COc1ccc(Oc2cccc(-c3nnc(Nc4ccc(Cl)c(Cl)c4)s3)c2)cc1 [Example 150, (3,4-dichlorophenyl)(5-[3-(4-methoxyphenoxy)phenyl](1,3,4-thiadiazol-2-yl)}amine]
Second: Cc1ccc(Oc2cccc(-c3nnc(Nc4ccc(Cl)c(Cl)c4)s3)c2)cc1 [Example 151, (3,4-dichlorophenyl){5-[3-(4-methylphenoxy)phenyl](1,3,4-thiadiazol-2-yl)}amine]
The melting point of the first is lower: 198 to 199 °C for the first, 210 to 211 °C for the second.

First: CCOc1cccc(-c2nnc(N(Cc3cccc([N+](=O)[O-])c3)c3ccc(Cl)c(Cl)c3)s2)c1 [Example 147, (3,4-dichlorophenyl)[5-(3-ethoxyphenyl)(1,3,4-thiadiazol-2-yl)][(3-nitrophenyl)methyl]amine]
Second: O=[N+]([O-])c1cccc(Oc2cccc(-c3nnc(Nc4ccc(Cl)c(Cl)c4)s3)c2)c1 [Example 126, (3,4-dichlorophenyl){5-[3-(3-nitrophenoxy)phenyl](1,3,4-thiadiazol-2-yl)}amine]
The melting point of the first is lower: 114 to 115 °C for the first, 210.5 to 211.5 °C for the second.

First: O=[N+]([O-])c1ccccc1OCc1nnc(Nc2cccc(Br)c2)s1 [Example 36, (3-Bromophenyl){5-[(2-nitrophenoxy)methyl](1,3,4-thiadiazol-2-yl)}amine]
Second: O=[N+]([O-])c1cccc(-c2nnc(Nc3cccc(Cl)c3Cl)s2)c1 [Example 76, (2,3-dichlorophenyl)[5-(3-nitrophenyl)(1,3,4-thiadiazol-2-yl)]amine]
The melting point of the first is lower: 184 to 185 °C for the first, 240 to 242 °C for the second.

First: Nc1nnc(-c2cccc(Oc3cccc(COc4ccc(Cl)c(Cl)c4)c3)c2)s1 [Example 158, (3,4-dichlorophenyl)(5-{3-[3-(oxymethyl)phenoxy]phenyl)(1,3,4-thiadiazol-2-yl))amine]
Second: Oc1ccc(Oc2cccc(-c3nnc(Nc4ccc(Cl)c(Cl)c4)s3)c2)cc1 [Example 128, 4-(3-{-[(3,4-dichlorophenyl)amino]-1,3,4-thiadiazol-2-yl}phenoxy)phenol]
The melting point of the first is lower: 128 to 130 °C for the first, 224 to 225.5 °C for the second.

First: CCOC(=O)c1ccc(Nc2nnc(-c3ccc(Oc4ccccc4)cc3)s2)cc1 [Example 123, ethyl 4-{[5-(4-phenoxyphenyl)-1,3,4-thiadiazol-2-yl]amino}benzoate]
Second: O=C(O)c1ccc(CNc2nnc(-c3cccc(Oc4ccccc4)c3)s2)cc1 [Example 166, 4-({[5-(3-phenoxyphenyl)-1,3,4-thiadiazol-2-yl]amino}methyl)benzoic acid]
The melting point of the first is higher: 206 to 207 °C for the first, 192 to 195 °C for the second.

Work on `CCOc1cccc(-c2nnc(Nc3ccc(F)c(Cl)c3)s2)c1` [Example 70, (3-chloro-4-fluorophenyl)[5-(3-ethoxyphenyl)(1,3,4-thiadiazol-2-yl)]amine] yielded a melting point of 170 to 172 °C.
